US10059657B2, “Class-and isoform-specific HDAC inhibitors and uses thereof” (priority 2009, dated 2018)

What was measured:
[1] = molecular target: T1, H976Y HDAC4 gain of function mutant (Homo sapiens, UniProt P56524, H976Y); details: H976Y mutant compared with HDAC4; cited from earlier work
T1 sequence (P56524 1-1084 H976Y): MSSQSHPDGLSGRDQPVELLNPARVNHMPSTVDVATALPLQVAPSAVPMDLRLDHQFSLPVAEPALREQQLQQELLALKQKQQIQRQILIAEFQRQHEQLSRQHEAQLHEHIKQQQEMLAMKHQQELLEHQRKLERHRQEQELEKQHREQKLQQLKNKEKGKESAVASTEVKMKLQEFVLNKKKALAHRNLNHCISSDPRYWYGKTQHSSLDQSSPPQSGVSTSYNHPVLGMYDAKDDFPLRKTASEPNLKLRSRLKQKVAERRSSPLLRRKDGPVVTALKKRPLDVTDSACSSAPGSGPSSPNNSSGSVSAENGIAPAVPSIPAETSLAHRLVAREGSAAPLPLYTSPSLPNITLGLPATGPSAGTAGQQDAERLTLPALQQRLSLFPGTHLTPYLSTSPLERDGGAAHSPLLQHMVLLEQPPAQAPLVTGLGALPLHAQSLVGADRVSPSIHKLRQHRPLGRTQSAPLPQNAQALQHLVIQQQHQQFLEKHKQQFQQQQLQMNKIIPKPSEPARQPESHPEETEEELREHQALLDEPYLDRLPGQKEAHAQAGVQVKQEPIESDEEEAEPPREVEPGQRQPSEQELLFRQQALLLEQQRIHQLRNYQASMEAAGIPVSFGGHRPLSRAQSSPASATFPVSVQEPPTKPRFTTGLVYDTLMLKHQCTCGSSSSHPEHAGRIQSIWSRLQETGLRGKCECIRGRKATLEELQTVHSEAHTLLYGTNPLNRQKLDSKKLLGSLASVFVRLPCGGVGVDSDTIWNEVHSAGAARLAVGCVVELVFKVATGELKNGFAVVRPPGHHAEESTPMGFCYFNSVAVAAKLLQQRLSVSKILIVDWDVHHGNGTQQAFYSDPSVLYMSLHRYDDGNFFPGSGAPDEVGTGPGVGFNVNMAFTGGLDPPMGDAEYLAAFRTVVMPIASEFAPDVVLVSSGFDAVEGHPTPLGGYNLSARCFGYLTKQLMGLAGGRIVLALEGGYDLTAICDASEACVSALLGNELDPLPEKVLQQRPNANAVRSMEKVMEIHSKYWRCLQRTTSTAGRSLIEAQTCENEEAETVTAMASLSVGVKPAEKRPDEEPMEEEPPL

Sirtuin2 = molecular target: T2, Sirtuin2 (Homo sapiens, UniProt Q8IXJ6); assay: Sirtuin activity assay, Sirtuin2; assay type: biochemical; details: highest testing concentration
T2 sequence (Q8IXJ6 1-389): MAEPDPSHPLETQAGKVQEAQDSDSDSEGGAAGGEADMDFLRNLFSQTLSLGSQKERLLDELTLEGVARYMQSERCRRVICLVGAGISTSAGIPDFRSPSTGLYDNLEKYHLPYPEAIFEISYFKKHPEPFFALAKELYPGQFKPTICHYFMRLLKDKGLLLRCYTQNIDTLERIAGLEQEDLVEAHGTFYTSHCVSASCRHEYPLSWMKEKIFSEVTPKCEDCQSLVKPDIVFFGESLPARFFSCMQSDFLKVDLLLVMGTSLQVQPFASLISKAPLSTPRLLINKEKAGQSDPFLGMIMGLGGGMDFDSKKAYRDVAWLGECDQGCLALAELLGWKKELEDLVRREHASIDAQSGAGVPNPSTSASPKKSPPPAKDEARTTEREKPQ
Description: (§1) A series of compound dilutions (10 fold higher than final concentrations) are made in 10% DMSO in HDAC assay buffer. 5 μl of each dilution is added to 50 μl of the reaction mixture so that the final concentration of DMSO is 1% in all of reactions.
(§2) All of the enzymatic reactions were conducted in duplicate at room temperature for 3 hours in a 50 μl mixture containing HDAC assay buffer, 5 μg BSA, 100 μM NAD^+, 10 μM HDAC substrate 1, a sirtuin enzyme, and the test compound.
(§3) After enzymatic reactions, 50 μl of 2×HDAC Developer was added to each well and the plate was incubated at room temperature for an additional 20 minutes. Fluorescence intensity was measured at an excitation of 360 nm and an emission of 460 nm using a BioTek Synergy™ 2 microplate reader.
(§4) Sirtuin activity assays were performed in duplicates at each concentration. The fluorescent intensity data were analyzed using the computer software, Graphpad Prism. […] The percent activity in the presence of each compound was calculated according to the following equation: % activity=(F−Fb)/(Ft−Fb), where F=the fluorescent intensity in the presence of the compound, Fb=the fluorescent intensity in the absence of the sirtuin, and Ft=the fluorescent intensity in the absence of the compound. […]
(§5) If the IC50 value is not available, the % inhibition of the compound at the highest testing concentration was calculated.

Sirtuin3 = molecular target: T3, Sirtuin3 (Homo sapiens, UniProt Q9NTG7); assay: Sirtuin activity assay, Sirtuin3; assay type: biochemical; details: highest testing concentration
T3 sequence (Q9NTG7 1-399): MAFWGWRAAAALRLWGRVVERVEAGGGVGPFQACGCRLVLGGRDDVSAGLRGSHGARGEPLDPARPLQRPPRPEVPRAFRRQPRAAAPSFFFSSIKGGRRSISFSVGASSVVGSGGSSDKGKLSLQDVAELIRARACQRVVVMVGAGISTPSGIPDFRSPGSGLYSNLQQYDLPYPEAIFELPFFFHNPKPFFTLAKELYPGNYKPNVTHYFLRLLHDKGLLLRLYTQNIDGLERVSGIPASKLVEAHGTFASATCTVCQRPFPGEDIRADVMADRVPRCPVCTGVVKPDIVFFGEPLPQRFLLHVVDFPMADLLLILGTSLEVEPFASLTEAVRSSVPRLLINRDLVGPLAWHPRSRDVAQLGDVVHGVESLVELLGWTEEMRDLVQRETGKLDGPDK
Description: as §1, §2, §3, §4, §5

HDAC1-9 = assay: Biochemical HDAC assay, profiling against HDAC1-9; parameters: species or system human; details: dose-response, mean of three replicates
Description: The inhibitory effect of compounds on HDAC1-9 function was determined in vitro using an optimized homogenous assay performed in 384-well plate format. […] Reactions are performed in assay buffer (50 mM HEPES, 100 mM KCl, 0.001% Tween-20, 0.05% BSA, 200 μM TCEP, pH 7.4) and followed for fluorigenic release of 7-amino-4-methylcoumarin from substrate upon deacetylase and trypsin enzymatic activity. Fluorescence measurements are obtained approximately every five minutes using a multilabel plate reader and plate-stacker (Envision; Perkin-Elmer). Data are analyzed on a plate-by-plate basis for the linear range of fluorescence over time. The first derivative of data obtained from the plate capture corresponding to the mid-linear range is imported into analytical software and annotated with well identity and compound concentration (Spotfire DecisionSite). Replicate experimental data from incubations with inhibitor are normalized to control, solvent-only wells.
Data are analyzed by logistic regression with determination of IC50 and standard deviation (Spotfire DecisionSite and GraphPad Prism). Calculation of Ki is determined using a derivation of the standard formula Ki=[Inhibitor]/((VON;)*(1+S/Km))−[Substrate]/Km)−1. […]

For `O=C(/C=C/c1ccc(CN(CCO)CCc2c[nH]c3ccccc23)cc1)NO` [LAQ-824], the “increased affinity for the H976Y HDAC4 gain of function mutant” value [1] is listed as 100 fold.

Compound `O=C(/C=C/c1ccc(C(=O)N/N=C/c2ccc(O)c(O)c2O)cc1)NO` [pandacostat, (E)-N-hydroxy-3-(4-((E)-2-(2,3,4-trihydroxybenzylidene) hydrazinecarbonyl)phenyl) acrylamide] has an inhibition at 100 µM (Sirtuin2) of ~62% and an inhibition at 100 µM (Sirtuin3) of ~57%.

For `O=C(CCCCCCC(=O)Nc1ccccc1)NO` [SAHA], the “inhibition of HDAC1-9, isoform selectivity profile” value (HDAC1-9) was “unexpected selectivity”.

In the case of trichostatin A [TSA], the “inhibition of HDAC1-9, isoform selectivity profile” value (HDAC1-9) is reported as “unexpected selectivity”.
